Experimental data as given in patent US10570104B2, “Metabolically programmed metal chelators and uses thereof” (University of Florida Research Foundation, Incorporated, priority 2015, dated 2020).
Entries after “also recorded” stand apart in the source; their conditions may differ. Read-outs that look alike come from different tables or passages of the source. One block for each compound: values may come before it.

What was measured:
[1] = log Papp, octanol/TRIS buffer pH 7.4, shake flask direct method; format: physicochemical; conditions: not told
Source text: The redesign of 2 was predicated on the observation that both ligands 2 and 3 were orally active iron chelators in rodents and primates (Table 1), and that when the 4′-(OH) of 2 was methylated, providing (S)-4,5-dihydro-2-(2-hydroxy-4-methoxyphenyl)-4-methyl-4-thiazolecarboxylic acid^43 [(S)-4′-(CH3O)-DADFT, 4], there was a remarkable enhancement in both ICE and lipophilicity (log Papp). The log Papp data are expressed as the log of the fraction of the chelator seen in the octanol layer; measurements were done in TRIS buffer, pH 7.4, using a “shake flask” direct method.^49 The more negative the log Papp, the less chelator is in the octanol phase, the less lipophilic. Unfortunately, the increase in ICE of 4 came with a concomitant increase in toxicity.^50 Thus, the delicate balance between the increase in ICE and toxicity with enhanced lipophilicity needed to be understood and exploited.

[2] = cited from earlier work
[3] = cited from earlier work; remark: listed apart in the source
[4] = 2:1 complex with Fe(III), cited from earlier work
[5] = rats; cited from earlier work
[6] = cited from earlier work; remark: listed apart in the source
[7] = Tissue distribution/metabolism of chelators in rats given sc (HPLC); format: in vivo, Sprague-Dawley rats; conditions: sc 7, plasma, 0.5 hour
Protocol: Collection of Chelator Tissue Distribution Samples from Rodents. Male Sprague-Dawley rats (250-350 g) were given a single subcutaneously injection of the monosodium salts of 8 and 11 prepared as described above at a dose of […]. At times 0.5, 1, 2, 4 and 8 hours after dosing (n=3 rats per time point), the animals were euthanized by exposure to CO2 gas. Blood was obtained via cardiac puncture into vacutainers containing sodium citrate. The blood was centrifuged, and the plasma was separated for analysis. The liver, kidney, heart, and pancreas were removed from the animals and frozen.
Tissue Analytical Methods. Tissue samples of animals treated with 8 were prepared for HPLC analysis by homogenizing them in H2O at a ratio of 1:1 (w/v). Then, as a rinse, CH3OH at a ratio of 1:3 (w/v) was added, and the mixture was stored at −20° C. for 30 min. This homogenate was centrifuged. The supernatant was diluted with H2O, vortexed, and filtered with a 0.2 μm membrane. Analytical separation was performed on a Supelco Discovery RP Amide C16 HPLC system with UV detection at 310 nm as described previously.^44,75 Mobile phase and chromatographic conditions were as follows: solvent A, 5% CH3CN/95% buffer (25 mM KH2PO4+2.5 mM 1-octanesulfonic acid, pH 3.0); solvent B, 60% CH3CN/40% buffer.
Tissue samples of animals treated with 11 were prepared for HPLC analysis by homogenizing them in 0.5 N HClO4 at a ratio of 1:3 (w/v). Then, as a rinse, CH3OH at a ratio of 1:3 (w/v) was added, and the mixture was stored at −20° C. for 30 min. This homogenate was centrifuged. The supernatant was diluted with 95% buffer (25 mM KH2PO4, pH 3.0)/5% CH3CN, vortexed, and filtered with a 0.2 μm membrane. Analytical separation was performed on a Supelco Ascentis Express RP-Amide HPLC system with UV detection at 310 nm as described previously. Mobile phase and chromatographic conditions were as for 8.
Ligand concentrations were calculated from the peak area fitted to calibration curves by nonweighted least-squares linear regression with Shimadzu Class-VP 7.4 software.

[8] = as above; format: in vivo, Sprague-Dawley rats
[9] = rats, cited from earlier work
[10] = rats; cited from earlier work; remark: listed apart in the source

Log Papp [1]: −1.77
Structure (SMILES): C[C@]1(C(=O)O)CSC(c2ncccc2O)=N1 [Compound 1, (S)-4,5-dihydro-2-(3-hydroxy-2-pyridinyl)-4-methyl-4-thiazolecarboxylic acid]
Rodent ICE (%) ([2]; po, 150 μmol/kg): 5.5±3.2% | Primate ICE (%) ([3]; po, 150 μmol/kg, historical): 16.1±8.5% | cumulative formation constant [4]: 4e+29 M⁻¹ | cumulative formation constant ([4]; unit not given): 4×10^29 | nephrotoxicity [5]: severe nephrotoxicity; also recorded: unacceptable renal toxicity

Log Papp [1]: −1.05
Structure (SMILES): C[C@]1(C(=O)O)CSC(c2ccc(O)cc2O)=N1 [Compound 2, (S)-2-(2,4-dihydroxyphenyl)-4,5-dihydro-4-methyl-4-thiazolecarboxylic acid]
Rodent ICE (%) ([2]; po, 300 μmol/kg, historical): 1.1±0.8% | Primate ICE (%) ([3]; po, 150 μmol/kg, historical): 16.8±7.2% | tolerability in patients ([6]; 5, 10, or 15 mg/kg/day once daily for up to 12 weeks): well tolerated | renal toxicity in patients ([6]; twice daily 12.5 mg/kg (25 mg/kg/d), three patients after 4-5 weeks): unacceptable renal toxicity

Log Papp [1]: −0.89 | share of total drug concentration [7]: 95%
Structure (SMILES): COCCOCCOc1ccc(C2=N[C@@](C)(C(=O)O)CS2)c(O)c1 [Compound 7, (S)-4,5-dihydro-2-[2-hydroxy-4-(3,6-dioxaheptyloxy)phenyl]-4-methyl-4-thiazolecarboxylic acid]
Rodent ICE (%) ([2]; po, 300 μmol/kg, 48 hour sample collection period, historical): 26.7 ± 4.7% | Primate ICE (%) ([3]; po, 75 μmol/kg, as monosodium salt, historical): 28.7±12.4% | Primate ICE (%) ([3]; po, 75 μmol/kg, in capsules, historical): 26.3 ± 9.9% | cleavage of 7 to 2 ([8]; sc 7): no cleavage to 2; also recorded: does not sustain metabolic cleavage at the 4′-(HO) to yield 2 | metabolism of 7 to 8 and 9 in tissues ([8]; sc 7, HPLC of tissues): cleavage of the terminal methyl of 7 to the corresponding alcohol 8 did occur | histopathology ([9]; extensive tissues): no drug-related abnormalities were identified | CBC and serum chemistries ([9]; po s.i.d. 28 d (56.9-170.7 μmol/kg/day), s.i.d. 10 d (384 μmol/kg/d), b.i.d. 7 d (474 μmol/kg/d)): No drug-related abnormalities were found | BUN and SCr levels ([9]; same regimens): within the normal range | urinary Kim-1 excretion ([9]; up to 28 days): did not elicit any increases in urinary Kim-1 excretion

Structure (SMILES): CC(=O)N(O)CCCCCNC(=O)CCC(=O)N(O)CCCCCNC(=O)CCC(=O)N(O)CCCCCN [DFO, desferrioxamine B]
Rodent ICE (%) ([2]; sc, 150 μmol/kg): 2.5 ± 0.7% | Primate ICE (%) ([3]; sc, 150 μmol/kg): 5.5 ± 0.9% | effect on colitis [10]: prevent acetic acid-induced colitis
